Results: BigSolDB 2.1

CN1COCN(Cc2cnc(Cl)s2)C1=N[N+](=O)[O-]
solubility (mole fraction)
Details	278.15 K	283.15 K	288.15 K	293.15 K	298.15 K	303.15 K	308.15 K	313.15 K	318.15 K	323.15 K
in 1,4-dioxane	–	–	0.00255	0.00328	0.00404	0.00523	0.00637	0.00792	0.00985	0.0123
in 2-ethoxyethanol	0.00319	0.00411	0.00523	0.00627	0.00722	0.00839	0.01	0.0117	0.0141	0.0168
in 2-methoxyethanol	0.00727	0.00895	0.011	0.013	0.0152	0.0185	0.0218	0.026	0.0311	0.0374
in DMAc	0.0679	0.074	0.0817	0.0902	0.0988	0.108	0.12	0.133	0.145	0.157
in DMSO	–	–	0.0689	0.0786	0.0902	0.103	0.117	0.134	0.152	0.172
in acetic acid	–	–	–	0.013	0.0172	0.0227	0.0292	0.0387	0.0547	0.07
in acetonitrile	0.00704	0.00827	0.0105	0.0125	0.0149	0.0183	0.0227	0.0278	0.0344	0.0422
in methanol	0.000628	0.000817	0.00111	0.00141	0.00169	0.00225	0.00294	0.00397	0.00486	0.0063
in propionic acid	0.000769	0.00113	0.00147	0.00185	0.00252	0.00329	0.00406	0.00562	0.00739	0.00939
